Patent publication US6620828B2, “Thiazole compounds and pharmaceutical compositions for inhibiting protein kinases and methods for their use” (Agouron Pharmaceuticals, Inc., priority 1999, dated 2003)

System: human umbilical vein endothelial cells (HUVEC)
Assay: HUVEC proliferation assay
Assay type: cell-based
Conditions: Homo sapiens, HUVEC, table following Table II (untitled), crude combinatorial library; for inhibition at 0.001 µM: 1 nM; for inhibition at 0.01 µM: 10 nM, read-out: % inhibition @ 10 nM
Outline: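 Readout was MTT dye reduction (A595) after 72 h of stimulation with VEGF at 6 ng/ml final. Compound, in 0.1% DMSO final, was added 1 h before VEGF to HUVEC starved 24 h in 1% FBS. % inhibition was scaled between VEGF-alone and unstimulated wells; IC50 was fitted from triplicate dose curves.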

Row | Compound | inhibition at 0.001 µM [%] | inhibition at 0.01 µM [%]
1 | COc1cc(Nc2nc(N)c(-c3nc(-c4cc(NC(=O)c5ccccc5)ccc4C)no3)s2)cc(OC)c1OC | 25 | 111
2 | COc1cc(Nc2nc(N)c(-c3nc(-c4cc(NC(=O)c5cc(=O)[nH]c(=O)[nH]5)ccc4C)no3)s2)cc(OC)c1OC | -4 | 4
3 | COc1cc(Nc2nc(N)c(-c3nc(-c4cc(NC(=O)C5CCCO5)ccc4C)no3)s2)cc(OC)c1OC (stereo not drawn) | 7 | 21
4 | COc1cc(Nc2nc(N)c(-c3nc(-c4cc(NC(=O)c5ccc(=O)oc5)ccc4C)no3)s2)cc(OC)c1OC | 30 | 51
5 | COc1cc(Nc2nc(N)c(-c3nc(-c4cc(NC(=O)c5cccc6[nH]ccc56)ccc4C)no3)s2)cc(OC)c1OC | 13 | 72
6 | COc1cc(Nc2nc(N)c(-c3nc(-c4cc(NC(=O)C5=C[C@@H](O)[C@@H](O)[C@H](O)C5)ccc4C)no3)s2)cc(OC)c1OC | 4 | 6
7 | COc1cc(Nc2nc(N)c(-c3nc(-c4cc(NC(=O)[C@H]5CC(=O)NC(=O)N5)ccc4C)no3)s2)cc(OC)c1OC | 25 | 2
8 | COc1cc(Nc2nc(N)c(-c3nc(-c4cc(NC(=O)CCCN(C)C)ccc4C)no3)s2)cc(OC)c1OC | 5 | 16
9 | COc1cc(Nc2nc(N)c(-c3nc(-c4cc(NC(=O)[C@H]5CCC(=O)N5)ccc4C)no3)s2)cc(OC)c1OC | -4 | 13
10 | C=CCC(=O)Nc1ccc(C)c(-c2noc(-c3sc(Nc4cc(OC)c(OC)c(OC)c4)nc3N)n2)c1 | 35 | 72
11 | COc1cc(Nc2nc(N)c(-c3nc(-c4cc(NC(=O)C5CCN(C(C)=O)CC5)ccc4C)no3)s2)cc(OC)c1OC | -4 | 16
12 | COc1cc(Nc2nc(N)c(-c3nc(-c4cc(NC(=O)C5CCOC5)ccc4C)no3)s2)cc(OC)c1OC (stereo not drawn) | 16 | 6
13 | COc1cccc(/C=C/C(=O)Nc2ccc(C)c(-c3noc(-c4sc(Nc5cc(OC)c(OC)c(OC)c5)nc4N)n3)c2)c1 | -5 | 40
14 | COc1cc(Nc2nc(N)c(-c3nc(-c4cc(NC(=O)C(O)c5ccccc5)ccc4C)no3)s2)cc(OC)c1OC (stereo not drawn) | -1 | 40
15 | COc1cc(Nc2nc(N)c(-c3nc(-c4cc(NC(=O)C(=O)Cc5ccccc5)ccc4C)no3)s2)cc(OC)c1OC | 23 | 21
16 | COc1cc(Nc2nc(N)c(-c3nc(-c4cc(NC(=O)CSC(=S)N(C)C)ccc4C)no3)s2)cc(OC)c1OC | 6 | -7
17 | COc1cc(Nc2nc(N)c(-c3nc(-c4cc(NC(=O)C5C(C=C(C)C)C5(C)C)ccc4C)no3)s2)cc(OC)c1OC (stereo not drawn) | 8 | -11
18 | COc1cc(Nc2nc(N)c(-c3nc(-c4cc(NC(=O)[C@@]56C[C@@H]7C[C@@H]5CC7(C)C6)ccc4C)no3)s2)cc(OC)c1OC | 1 | 23
19 | COc1cc(Nc2nc(N)c(-c3nc(-c4cc(NC(=O)Cc5cccnc5)ccc4C)no3)s2)cc(OC)c1OC | -4 | 21
20 | COc1cc(Nc2nc(N)c(-c3nc(-c4cc(NC(=O)Cc5cc(F)ccc5F)ccc4C)no3)s2)cc(OC)c1OC | -7 | 59
21 | COc1cc(Nc2nc(N)c(-c3nc(-c4cc(NC(=O)Cc5cc(F)cc(F)c5)ccc4C)no3)s2)cc(OC)c1OC | 4 | 67

Row | Compound | inhibition at 0.001 µM [%] | inhibition at 0.01 µM [%]
22 | COc1cccc(CC(=O)Nc2ccc(C)c(-c3noc(-c4sc(Nc5cc(OC)c(OC)c(OC)c5)nc4N)n3)c2)c1 | 12 | 35
23 | COc1cc(Nc2nc(N)c(-c3nc(-c4cc(NC(=O)C5CC[C@H]6C=C[C@@H]5C6)ccc4C)no3)s2)cc(OC)c1OC (stereo partly drawn) | -2 | 33
24 | COc1cc(Nc2nc(N)c(-c3nc(-c4cc(NC(=O)CCc5ccc(C)cc5)ccc4C)no3)s2)cc(OC)c1OC | -18 | 23
25 | COc1cc(Nc2nc(N)c(-c3nc(-c4cc(NC(=O)c5cc(C)on5)ccc4C)no3)s2)cc(OC)c1OC | 12 | 15
26 | COc1cc(Nc2nc(N)c(-c3nc(-c4cc(NC(=O)C(=O)CC(C)C)ccc4C)no3)s2)cc(OC)c1OC | 7 | 18
27 | COc1cc(Nc2nc(N)c(-c3nc(-c4cc(NC(=O)C5CCCC(OC)C5)ccc4C)no3)s2)cc(OC)c1OC (stereo not drawn) | -4 | 19
28 | COc1cc(Nc2nc(N)c(-c3nc(-c4cc(NC(=O)C5(c6ccc(C)cc6)CC5)ccc4C)no3)s2)cc(OC)c1OC | 10 | -8
29 | COc1cc(Nc2nc(N)c(-c3nc(-c4cc(NC(=O)Cc5sc(S)nc5C)ccc4C)no3)s2)cc(OC)c1OC | -17 | 1
30 | COc1cc(Nc2nc(N)c(-c3nc(-c4cc(NC(=O)c5cc(C)n(C)n5)ccc4C)no3)s2)cc(OC)c1OC | 25 | 99
31 | COc1cc(Nc2nc(N)c(-c3nc(-c4cc(NC(=O)C5CC(=O)OC5(C)C)ccc4C)no3)s2)cc(OC)c1OC (stereo not drawn) | -9 | 12
32 | COc1cc(Nc2nc(N)c(-c3nc(-c4cc(NC(=O)c5cc(C)n[nH]5)ccc4C)no3)s2)cc(OC)c1OC | -1 | 99
33 | COc1cc(Nc2nc(N)c(-c3nc(-c4cc(NC(=O)c5cc(C)nn5C)ccc4C)no3)s2)cc(OC)c1OC | -23 | 109
34 | COc1cc(Nc2nc(N)c(-c3nc(-c4cc(NC(=O)c5cc(C)[nH]c5C)ccc4C)no3)s2)cc(OC)c1OC | -36 | 16
35 | COc1cc(Nc2nc(N)c(-c3nc(-c4cc(NC(=O)c5cccc6cc[nH]c56)ccc4C)no3)s2)cc(OC)c1OC | 34 | 41
36 | C/C=C(\C)C(=O)Nc1ccc(C)c(-c2noc(-c3sc(Nc4cc(OC)c(OC)c(OC)c4)nc3N)n2)c1 | 60 | 123
37 | COc1cc(Nc2nc(N)c(-c3nc(-c4cc(NC(=O)c5cc(=O)cco5)ccc4C)no3)s2)cc(OC)c1OC | 19 | 37
38 | CCCN(CCC)CC(=O)Nc1ccc(C)c(-c2noc(-c3sc(Nc4cc(OC)c(OC)c(OC)c4)nc3N)n2)c1 | 6 | 0
39 | CC/C=C(\C)C(=O)Nc1ccc(C)c(-c2noc(-c3sc(Nc4cc(OC)c(OC)c(OC)c4)nc3N)n2)c1 | 32 | 74
40 | COc1cc(Nc2nc(N)c(-c3nc(-c4cc(NC(=O)C5CC6C=CCC(C6)C5)ccc4C)no3)s2)cc(OC)c1OC (stereo not drawn) | 18 | 18
41 | COc1cc(Nc2nc(N)c(-c3nc(-c4cc(NC(=O)C5CCC6CCC(O)CC5C6)ccc4C)no3)s2)cc(OC)c1OC (stereo not drawn) | 10 | 11
42 | COc1cc(Nc2nc(N)c(-c3nc(-c4cc(NC(=O)C5CC[C@H]6CC(O)CC[C@@H](C5)C6)ccc4C)no3)s2)cc(OC)c1OC (stereo partly drawn) | 7 | 20
